# Assays:
# Test in all cases: Kinase selectivity panel
# Format in all cases: biochemical
# Conditions in all cases: read-out: Inhibition(%) @ 1 µM RK-019
# [1] = molecular target: T1, MRCKβ(h) (Homo sapiens, UniProt Q9Y5S2)
# T1 construct: purchased Eurofins Discovery Services (KinaseProfiler)
# In short: (§1)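 Recombinant human kinase incubated with 1 µM compound; ATP-site competition binding quantified in vitro as inhibition ratio.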
# [2] = molecular target: T2, Src(1-530)(h) (Homo sapiens, UniProt P12931)
# T2 construct: purchased Eurofins Discovery Services (KinaseProfiler)
# In short: as §1
# [3] = molecular target: T3, CK2α2(h) (Homo sapiens, UniProt P19784)
# T3 construct: purchased Eurofins Discovery Services (KinaseProfiler)
# In short: as §1
# [4] = molecular target: T4, GRK5(h) (Homo sapiens, UniProt P34947)
# T4 construct: purchased Eurofins Discovery Services (KinaseProfiler)
# In short: as §1
# [5] = molecular target: T5, SRMS(h) (Homo sapiens, UniProt Q9H3Y6)
# T5 construct: purchased Eurofins Discovery Services (KinaseProfiler)
# In short: as §1
# [6] = molecular target: T6, STK32A(h) (Homo sapiens, UniProt Q8WU08)
# T6 construct: purchased Eurofins Discovery Services (KinaseProfiler)
# In short: as §1
# [7] = molecular target: T7, EphB1(h) (Homo sapiens, UniProt P54762)
# T7 construct: purchased Eurofins Discovery Services (KinaseProfiler)
# In short: as §1
# [8] = molecular target: T8, EphB4(h) (Homo sapiens, UniProt P54760)
# T8 construct: purchased Eurofins Discovery Services (KinaseProfiler)
# In short: as §1
# [9] = molecular target: T9, AMPKα2(h) (Homo sapiens, UniProt P54646)
# T9 construct: purchased Eurofins Discovery Services (KinaseProfiler)
# In short: as §1
# [10] = molecular target: T10, ALK2(h) (Homo sapiens, UniProt Q04771)
# T10 construct: purchased Eurofins Discovery Services (KinaseProfiler)
# In short: as §1
# [11] = molecular target: T11, CLK2(h) (Homo sapiens, UniProt P49760)
# T11 construct: purchased Eurofins Discovery Services (KinaseProfiler)
# In short: as §1
# [12] = molecular target: T12, PDHK4(h) (Homo sapiens, UniProt Q16654)
# T12 construct: purchased Eurofins Discovery Services (KinaseProfiler)
# In short: as §1
# [13] = molecular target: T13, SAPK2a(T106M)(h) (Homo sapiens, UniProt Q16539, T106M)
# T13 construct: purchased Eurofins Discovery Services (KinaseProfiler)
# In short: as §1
# [14] = molecular target: T14, Tie2 (h) (Homo sapiens, UniProt Q02763)
# T14 construct: purchased Eurofins Discovery Services (KinaseProfiler)
# In short: as §1
# [15] = molecular target: T15, MRCKα(h) (Homo sapiens, UniProt Q5VT25)
# T15 construct: purchased Eurofins Discovery Services (KinaseProfiler)
# In short: as §1
# [16] = molecular target: T16, MEKK2(h) (Homo sapiens, UniProt Q9Y2U5)
# T16 construct: purchased Eurofins Discovery Services (KinaseProfiler)
# In short: as §1
# [17] = molecular target: T17, Abl(m) (Mus musculus, UniProt P00520)
# T17 construct: purchased Eurofins Discovery Services (KinaseProfiler)
# [18] = molecular target: T18, PIP5K1a(h) (Homo sapiens, UniProt Q99755)
# T18 construct: purchased Eurofins Discovery Services (KinaseProfiler)
# In short: as §1
# [19] = molecular target: T19, PRP4(h) (Homo sapiens, UniProt Q13523)
# T19 construct: purchased Eurofins Discovery Services (KinaseProfiler)
# In short: as §1
# [20] = molecular target: T20, PI3 Kinase (p110a/p65a)(h) (Homo sapiens, UniProt P42336)
# T20 construct: purchased Eurofins Discovery Services (KinaseProfiler)
# In short: as §1
# [21] = molecular target: T21, c-RAF(h) (Homo sapiens, UniProt P04049)
# T21 construct: purchased Eurofins Discovery Services (KinaseProfiler)
# In short: as §1
# [22] = molecular target: T22, MEK1(h) (Homo sapiens, UniProt Q02750)
# T22 construct: purchased Eurofins Discovery Services (KinaseProfiler)
# In short: as §1
# [23] = molecular target: T23, MSK1(h) (Homo sapiens, UniProt O75582)
# T23 construct: purchased Eurofins Discovery Services (KinaseProfiler)
# In short: as §1
# [24] = molecular target: T24, NEK7(h) (Homo sapiens, UniProt Q8TDX7)
# T24 construct: purchased Eurofins Discovery Services (KinaseProfiler)
# In short: as §1
# [25] = molecular target: T25, ZAK(h) (Homo sapiens, UniProt Q9NYL2)
# T25 construct: purchased Eurofins Discovery Services (KinaseProfiler)
# In short: as §1
# [26] = molecular target: T26, CHK2(I157T)(h) (Homo sapiens, UniProt O96017, I157T)
# T26 construct: purchased Eurofins Discovery Services (KinaseProfiler)
# In short: as §1
# [27] = molecular target: T27, PKBγ(h) (Homo sapiens, UniProt Q9Y243)
# T27 construct: purchased Eurofins Discovery Services (KinaseProfiler)
# In short: as §1
# [28] = molecular target: T28, TrkA(h) (Homo sapiens, UniProt P04629)
# T28 construct: purchased Eurofins Discovery Services (KinaseProfiler)
# In short: as §1
# [29] = molecular target: T29, CDKL1(h) (Homo sapiens, UniProt Q00532)
# T29 construct: purchased Eurofins Discovery Services (KinaseProfiler)
# In short: as §1
# [30] = molecular target: T30, JAK1(h) (Homo sapiens, UniProt P23458)
# T30 construct: purchased Eurofins Discovery Services (KinaseProfiler)
# In short: as §1
# [31] = molecular target: T31, cSRC(h) (Homo sapiens, UniProt P12931)
# T31 construct: purchased Eurofins Discovery Services (KinaseProfiler)
# In short: as §1
# [32] = molecular target: T32, ATR/ATRIP(h) (Homo sapiens, UniProt Q13535)
# T32 construct: purchased Eurofins Discovery Services (KinaseProfiler)
# In short: as §1
# [33] = molecular target: T33, CK2α1(h) (Homo sapiens, UniProt P68400)
# T33 construct: purchased Eurofins Discovery Services (KinaseProfiler)
# In short: as §1
# [34] = molecular target: T34, PDGFRα(V561D)(h) (Homo sapiens, UniProt P16234, V561D)
# T34 construct: purchased Eurofins Discovery Services (KinaseProfiler)
# In short: as §1
# [35] = molecular target: T35, Rsk1(h) (Homo sapiens, UniProt Q15418)
# T35 construct: purchased Eurofins Discovery Services (KinaseProfiler)
# In short: as §1
# [36] = molecular target: T36, DCAMKL3(h) (Homo sapiens, UniProt Q9C098)
# T36 construct: purchased Eurofins Discovery Services (KinaseProfiler)
# In short: as §1
# [37] = molecular target: T37, Abl(h) (Homo sapiens, UniProt P00519)
# T37 construct: purchased Eurofins Discovery Services (KinaseProfiler)
# In short: as §1
# T27 sequence (Q9Y243 whole entry): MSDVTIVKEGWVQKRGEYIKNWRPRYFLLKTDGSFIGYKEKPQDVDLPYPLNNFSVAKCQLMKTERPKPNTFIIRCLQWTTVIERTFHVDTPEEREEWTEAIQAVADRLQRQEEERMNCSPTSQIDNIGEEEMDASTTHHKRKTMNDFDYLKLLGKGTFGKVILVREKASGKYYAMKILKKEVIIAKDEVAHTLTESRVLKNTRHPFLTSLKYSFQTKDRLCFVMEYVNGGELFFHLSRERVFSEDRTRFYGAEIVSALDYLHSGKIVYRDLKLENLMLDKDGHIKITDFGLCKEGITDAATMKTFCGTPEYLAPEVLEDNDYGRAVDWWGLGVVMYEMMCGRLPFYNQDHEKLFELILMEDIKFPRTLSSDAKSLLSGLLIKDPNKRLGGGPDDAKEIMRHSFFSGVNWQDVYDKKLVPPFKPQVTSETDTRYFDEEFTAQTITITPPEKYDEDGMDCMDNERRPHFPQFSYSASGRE
# T7 sequence (P54762 18-984): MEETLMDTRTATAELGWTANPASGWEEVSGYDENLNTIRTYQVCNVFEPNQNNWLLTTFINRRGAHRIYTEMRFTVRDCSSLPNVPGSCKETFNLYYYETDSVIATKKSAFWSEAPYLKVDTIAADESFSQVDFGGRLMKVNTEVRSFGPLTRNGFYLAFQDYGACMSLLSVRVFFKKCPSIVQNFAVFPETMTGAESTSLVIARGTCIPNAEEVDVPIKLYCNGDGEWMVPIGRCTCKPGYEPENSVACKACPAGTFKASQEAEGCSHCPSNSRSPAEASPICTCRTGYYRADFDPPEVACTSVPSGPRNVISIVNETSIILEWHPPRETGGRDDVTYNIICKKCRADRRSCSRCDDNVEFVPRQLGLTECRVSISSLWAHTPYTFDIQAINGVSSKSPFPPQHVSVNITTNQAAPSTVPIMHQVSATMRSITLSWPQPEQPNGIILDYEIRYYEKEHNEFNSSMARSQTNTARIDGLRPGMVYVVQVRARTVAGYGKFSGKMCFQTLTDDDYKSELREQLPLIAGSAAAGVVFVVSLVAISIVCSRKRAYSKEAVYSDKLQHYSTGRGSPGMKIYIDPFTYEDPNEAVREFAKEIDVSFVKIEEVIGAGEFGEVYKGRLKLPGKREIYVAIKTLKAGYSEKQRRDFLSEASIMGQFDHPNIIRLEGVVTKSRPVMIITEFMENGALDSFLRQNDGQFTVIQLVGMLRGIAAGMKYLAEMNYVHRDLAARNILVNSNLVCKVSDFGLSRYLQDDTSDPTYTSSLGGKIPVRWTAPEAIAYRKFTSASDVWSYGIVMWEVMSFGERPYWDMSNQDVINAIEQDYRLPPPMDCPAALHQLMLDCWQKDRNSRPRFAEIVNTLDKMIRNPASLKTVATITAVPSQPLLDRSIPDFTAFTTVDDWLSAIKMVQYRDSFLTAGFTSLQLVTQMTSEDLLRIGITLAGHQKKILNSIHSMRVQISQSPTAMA
# T12 sequence (Q16654 whole entry): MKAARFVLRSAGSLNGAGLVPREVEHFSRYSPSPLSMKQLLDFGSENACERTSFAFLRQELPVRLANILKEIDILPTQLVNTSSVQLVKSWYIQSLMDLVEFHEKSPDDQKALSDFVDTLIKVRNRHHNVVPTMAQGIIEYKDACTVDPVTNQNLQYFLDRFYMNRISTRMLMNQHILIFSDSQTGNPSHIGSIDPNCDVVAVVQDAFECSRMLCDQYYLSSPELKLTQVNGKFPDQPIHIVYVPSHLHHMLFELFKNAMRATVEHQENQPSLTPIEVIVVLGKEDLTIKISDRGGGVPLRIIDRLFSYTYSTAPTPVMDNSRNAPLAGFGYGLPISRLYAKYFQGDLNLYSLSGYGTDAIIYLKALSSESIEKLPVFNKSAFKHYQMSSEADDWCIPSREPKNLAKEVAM
# T26 sequence (O96017 whole entry I157T): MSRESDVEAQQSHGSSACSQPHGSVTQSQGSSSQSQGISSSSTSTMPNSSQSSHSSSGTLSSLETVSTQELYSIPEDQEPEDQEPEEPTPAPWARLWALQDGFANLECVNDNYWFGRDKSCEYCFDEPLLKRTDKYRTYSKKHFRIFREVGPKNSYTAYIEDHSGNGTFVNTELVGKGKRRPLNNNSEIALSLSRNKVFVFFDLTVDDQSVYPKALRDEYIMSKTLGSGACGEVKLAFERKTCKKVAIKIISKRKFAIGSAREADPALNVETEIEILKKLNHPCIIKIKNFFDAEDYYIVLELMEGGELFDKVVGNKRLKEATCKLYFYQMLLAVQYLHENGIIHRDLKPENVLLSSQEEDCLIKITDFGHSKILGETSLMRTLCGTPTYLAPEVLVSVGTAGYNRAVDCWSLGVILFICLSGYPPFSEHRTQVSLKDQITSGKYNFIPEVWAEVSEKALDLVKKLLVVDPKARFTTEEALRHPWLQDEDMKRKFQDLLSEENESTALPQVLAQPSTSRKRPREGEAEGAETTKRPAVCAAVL
# T23 sequence (O75582 whole entry): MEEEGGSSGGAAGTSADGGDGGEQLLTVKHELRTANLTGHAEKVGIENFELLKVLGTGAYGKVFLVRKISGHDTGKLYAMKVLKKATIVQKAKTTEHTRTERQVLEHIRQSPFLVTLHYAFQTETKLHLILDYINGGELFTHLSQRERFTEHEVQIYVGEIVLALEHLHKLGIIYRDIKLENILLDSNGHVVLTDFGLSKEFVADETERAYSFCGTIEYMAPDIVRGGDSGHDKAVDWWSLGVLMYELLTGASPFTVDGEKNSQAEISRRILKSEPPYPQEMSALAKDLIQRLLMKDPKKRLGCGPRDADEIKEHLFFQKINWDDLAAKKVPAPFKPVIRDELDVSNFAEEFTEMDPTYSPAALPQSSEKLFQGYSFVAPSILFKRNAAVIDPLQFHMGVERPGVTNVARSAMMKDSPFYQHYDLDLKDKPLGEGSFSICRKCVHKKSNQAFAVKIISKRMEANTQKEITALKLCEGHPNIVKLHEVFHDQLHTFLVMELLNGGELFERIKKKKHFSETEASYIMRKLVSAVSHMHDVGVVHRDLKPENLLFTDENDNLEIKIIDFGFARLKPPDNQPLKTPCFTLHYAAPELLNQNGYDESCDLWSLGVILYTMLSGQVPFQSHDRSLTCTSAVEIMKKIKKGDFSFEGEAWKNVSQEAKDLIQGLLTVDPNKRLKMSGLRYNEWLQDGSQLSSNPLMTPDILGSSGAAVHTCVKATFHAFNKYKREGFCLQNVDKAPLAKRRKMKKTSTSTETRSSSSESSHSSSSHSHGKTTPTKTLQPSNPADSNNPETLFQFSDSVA
# T18 sequence (Q99755 whole entry): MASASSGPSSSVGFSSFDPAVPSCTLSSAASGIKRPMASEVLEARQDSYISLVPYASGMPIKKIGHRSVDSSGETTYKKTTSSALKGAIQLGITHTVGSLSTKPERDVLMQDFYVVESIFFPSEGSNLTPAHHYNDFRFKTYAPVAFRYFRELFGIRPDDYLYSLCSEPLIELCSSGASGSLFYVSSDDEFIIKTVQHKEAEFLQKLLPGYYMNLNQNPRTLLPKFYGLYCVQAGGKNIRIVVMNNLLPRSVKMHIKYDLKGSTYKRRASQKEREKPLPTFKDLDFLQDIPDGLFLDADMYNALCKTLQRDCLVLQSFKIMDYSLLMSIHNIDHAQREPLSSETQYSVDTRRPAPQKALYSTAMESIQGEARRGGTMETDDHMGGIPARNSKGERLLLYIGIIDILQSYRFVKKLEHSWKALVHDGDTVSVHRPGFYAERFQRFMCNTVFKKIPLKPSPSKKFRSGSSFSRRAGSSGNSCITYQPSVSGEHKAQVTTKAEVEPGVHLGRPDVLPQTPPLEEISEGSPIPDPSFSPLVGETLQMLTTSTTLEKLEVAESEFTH
# T22 sequence (Q02750 whole entry): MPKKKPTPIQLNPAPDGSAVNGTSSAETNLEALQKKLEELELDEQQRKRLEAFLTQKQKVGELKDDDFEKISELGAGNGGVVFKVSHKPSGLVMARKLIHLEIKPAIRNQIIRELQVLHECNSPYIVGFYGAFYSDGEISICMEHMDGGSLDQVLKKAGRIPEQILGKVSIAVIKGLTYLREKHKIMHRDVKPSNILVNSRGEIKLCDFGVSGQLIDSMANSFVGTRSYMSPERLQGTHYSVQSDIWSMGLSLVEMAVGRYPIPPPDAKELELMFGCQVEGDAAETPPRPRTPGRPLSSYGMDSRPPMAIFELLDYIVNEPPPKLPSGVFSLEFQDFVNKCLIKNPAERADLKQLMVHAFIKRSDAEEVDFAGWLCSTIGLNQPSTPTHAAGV
# T33 sequence (P68400 whole entry): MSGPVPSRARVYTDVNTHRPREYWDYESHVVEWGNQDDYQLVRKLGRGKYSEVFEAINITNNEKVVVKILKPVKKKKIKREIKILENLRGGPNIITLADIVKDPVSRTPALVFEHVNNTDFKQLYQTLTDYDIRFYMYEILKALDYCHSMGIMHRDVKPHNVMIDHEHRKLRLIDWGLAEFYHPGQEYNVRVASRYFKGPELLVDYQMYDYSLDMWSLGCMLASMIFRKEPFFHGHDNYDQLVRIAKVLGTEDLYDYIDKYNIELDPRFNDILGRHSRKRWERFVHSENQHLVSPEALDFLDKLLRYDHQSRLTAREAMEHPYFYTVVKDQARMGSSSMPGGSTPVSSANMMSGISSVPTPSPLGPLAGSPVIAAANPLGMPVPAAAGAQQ
# T24 sequence (Q8TDX7 whole entry): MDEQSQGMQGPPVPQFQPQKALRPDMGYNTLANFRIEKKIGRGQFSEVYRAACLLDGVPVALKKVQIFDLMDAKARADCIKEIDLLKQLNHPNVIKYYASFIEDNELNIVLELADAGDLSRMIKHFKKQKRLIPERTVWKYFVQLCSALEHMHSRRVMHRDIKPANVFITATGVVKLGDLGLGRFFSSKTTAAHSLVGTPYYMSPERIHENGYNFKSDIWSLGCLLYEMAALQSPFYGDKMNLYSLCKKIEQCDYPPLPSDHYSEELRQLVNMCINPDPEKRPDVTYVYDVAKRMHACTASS
structure (smiles),measurement,setting,value
"COc1cc(OC)cc(N(CCN[C@H](C)CO)c2ccc3ncc(-c4cnn(C)c4)c(=O)n3c2)c1 [RK-019, (R)-7-((3,5-dimethoxyphenyl) (2-((1-hydroxypropan-2-yl)amino)ethyl)amino)-3-(1-methyl-1H-pyrazol-4-yl)-4H-pyrido [1,2-a]pyrimidin-4-one]",activity at 1 µM,[1],108%
same,activity at 1 µM,[2],45%
same,activity at 1 µM,[3],105%
same,activity at 1 µM,[4],135%
same,activity at 1 µM,[5],123%
same,activity at 1 µM,[6],86%
same,activity at 1 µM,[7],58%
same,activity at 1 µM,[8],109%
same,activity at 1 µM,[9],109%
same,activity at 1 µM,[10],90%
same,activity at 1 µM,[11],107%
same,activity at 1 µM,[12],93%
same,activity at 1 µM,[13],90%
same,activity at 1 µM,[14],105%
same,activity at 1 µM,[15],103%
same,activity at 1 µM,[16],96%
same,activity at 1 µM,[17],17%
same,activity at 1 µM,[18],103%
same,activity at 1 µM,[19],90%
same,activity at 1 µM,[20],94%
same,activity at 1 µM,[21],94%
same,activity at 1 µM,[22],79%
same,activity at 1 µM,[23],95%
same,activity at 1 µM,[24],99%
same,activity at 1 µM,[25],80%
same,activity at 1 µM,[26],100%
same,activity at 1 µM,[27],94%
same,activity at 1 µM,[28],92%
same,activity at 1 µM,[29],97%
same,activity at 1 µM,[30],120%
same,activity at 1 µM,[31],54%
same,activity at 1 µM,[32],107%
same,activity at 1 µM,[33],95%
same,activity at 1 µM,[34],1%
same,activity at 1 µM,[35],120%
same,activity at 1 µM,[36],127%
same,activity at 1 µM,[37],40%
